This is an account of results in patent US20120028045A1, “Processes for the Preparation of Indiplon and Intermediates Thereof” (Glenmark Generics LTD, priority 2009, published 2012).

Common to all, as to type: physicochemical
Data set [1] is described as follows: Specific surface area by BET (nitrogen absorption). The note with it: crystal particles of indiplon. The source says:
Specific surface area is defined in units of square meters per gram (m^2/g). It is usually measured by nitrogen absorption analysis. In this analysis, nitrogen is absorbed on the surface of the substance. The amount of the absorbed nitrogen (as measured during the absorption or the subsequent desorption process) is related to the surface area via a formula known as the B. ET. formula.

A short description of data set [2]: Particle size distribution (laser light scattering, Malvern Mastersizer 2000). The note with it: crystal particles of indiplon. The source says: As used herein “Particle Size Distribution (P.S.D.)” means the cumulative volume size distribution of equivalent spherical diameters as determined by laser diffraction at 1 bar dispersive pressure in Sympatec Helos equipment.
“Mean particle size distribution, i.e., d (0.5)” correspondingly, means the median of said particle size distribution.
The particle size can be determined by such techniques as, for example, Malvern light scattering, a laser light scattering technique, etc., while herein, used Malvern Mastersizer 2000. It is noted the notation Dx means that X % of the particles have a diameter less than a specified diameter D. The particle sizes of the Indiplon can be obtained by, for example, any milling, grinding, micronizing or other particle size reduction method known in the art to bring the solid state indiplon any of the foregoing desired particle size range.

The nature of data set [3]: Bulk density as per USP method I.

On to `CC(=O)N(C)c1cccc(-c2ccnc3c(C(=O)c4cccs4)cnn23)c1` [indiplon, N-methyl-N-[3-[3-(thien-2-ylcarbonyl)pyrazolo[1,5-a]pyrimidin-7-yl]phenyl]acetamide], for which the “Surface area by BET” value in data set [1] came to 1.41 m^2/gm. In data set [2], the “Particle size Distribution d(0.1)” value was “d(0.1) 4.949 μm” and the “Particle size Distribution d(0.9)” value is reported as “d(0.9) 24.325 μm”. The “Particle size Distribution d(0.5)” value in data set [2] (median particle size) was “d(0.5) 11.641 μm”. Besides, in data set [3] (after tapping (750), USP method I), the “Bulk Density, after tapping (750)” value was “After tapping (750) = 0.47 g/ml as per USP”. Further, the “Bulk Density, as such” value in data set [3] (as such (untapped)) was “As such = 0.24 g/ml”.
